The text below walks through data of US12491170B2, “Stable treprostinil prodrugs” (United Therapeutics Corporation, priority 2020, dated 2025).

The target of data set [1] is prostaglandin I2 (PGI2) receptor (IP) (Homo sapiens, UniProt P43119). The data set can be described thus: IP receptor cAMP agonist assay (CHO-K1 cells). Format: cell-based. To be noted: relative to treprostinil EC50 values, * partial agonists or ambiguous dose-response curves. On the procedure:
(§1) Cyclic AMP assay kit: Multiscreen™ TR-FRET cAMP 1.0 No Wash Assay Kit (Multispan, Inc.)
(§2) Cells were thawed from frozen cells and resuspended in assay buffer at desired concentrations. cAMP or Calcium assays were performed according to the manufacturer's protocol using Multiscreen™ TR-FRET cAMP 1.0 No Wash Assay Kit or Multiscreen™ Calcium 1.0 No Wash Kit.
(§3) Gas Cyclic AMP (cAMP) Assay: In agonist mode testing, cells were seeded in a 384-well plate at an appropriate density and then were treated with compounds and incubated at 37° C. for 20 minutes. The reaction was terminated by […] trFluor™ Eu-labeled cAMP and trFluor™ 650-labeled anti-cAMP antibody in lysis buffer. […] All testing wells contained 0.1% DMSO in the final concentrations.
(§4) Data in graphs are represented in Mean±SD. Dose-dependent responses were fitted with sigmoidal dose-response curves allowing variable slopes using GraphPad Prism version 6 (Graphpad Prism).
(§5) These studies used cell lines overexpressing either human IP, EP2 or DP1, or EP1 receptors, and following incubation with varying concentrations of compounds, cAMP levels were measured using Fluorescence Resonance Energy Transfer (FRET).

Data set [2] addresses prostaglandin E2 (PGE2) receptor 2 (EP2) (Homo sapiens, UniProt P43116). The data set can be described thus: EP2 receptor cAMP agonist assay (HEK293T cells). To be noted: for EP2 Relative to Tre: Table 22, relative to treprostinil EC50 values, * partial agonists or ambiguous dose-response curves. It is filed as cell-based. How it is done: as §1, §2, §3, §4, §5
Data set [3] has as its target T1, prostaglandin D2 (PGD2) receptor 1 (DP1) (Homo sapiens, UniProt Q13258).
T1 sequence (Q13258 1-359): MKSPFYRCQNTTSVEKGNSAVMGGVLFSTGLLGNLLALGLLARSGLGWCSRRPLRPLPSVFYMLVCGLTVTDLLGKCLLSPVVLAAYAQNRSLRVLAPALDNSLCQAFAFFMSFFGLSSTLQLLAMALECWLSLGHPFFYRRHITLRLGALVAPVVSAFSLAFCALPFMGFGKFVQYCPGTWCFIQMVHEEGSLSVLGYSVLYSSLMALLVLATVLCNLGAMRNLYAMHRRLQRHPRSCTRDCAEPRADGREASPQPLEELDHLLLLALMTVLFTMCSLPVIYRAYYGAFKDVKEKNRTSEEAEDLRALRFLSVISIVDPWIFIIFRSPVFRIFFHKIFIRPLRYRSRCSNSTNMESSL
The data set can be described thus: DP1 receptor cAMP agonist assay (HEK293T cells). It is filed as cell-based. To be noted: for DP1 Relative to Tre: relative to treprostinil EC50 values, * partial agonists or ambiguous dose-response curves. On the procedure:
as §1, §2, §3, §4, §5

Data set [4] can be described thus: Hydrolysis of prodrugs to treprostinil at pH 6, 7, 8 and 40 C. Format: physicochemical. An excerpt:
Tables 24, 25 and 26 present data for hydrolysis of selected treprostinil prodrugs at pH 6, 7 and 8, respectively, and 40 C.

Data set [5] can be described thus: Stability in liver microsomes, human. (In general: Liver microsomes are vesicles of endoplasmic reticulum, rich in cytochrome P450 enzymes.)
The nature of data set [6]: Stability in liver microsomes, rat.
Data set [7] is described as follows: Stability in liver microsomes, dog.
Data set [8] in a line: Stability in cryopreserved hepatocytes, human.
Data set [9] in a line: Stability in cryopreserved hepatocytes, rat.
Data set [10] in a line: Stability in cryopreserved hepatocytes, dog.
A short description of data set [11]: Stability in human subcutaneous skin homogenate.
The conditions of data set [12]: rat.
The conditions of data set [13]: dog.

Like-named read-outs stand apart in the source and are kept apart here.

Chain of prostaglandin E2 (PGE2) receptor 2 (EP2) (P43116 whole entry): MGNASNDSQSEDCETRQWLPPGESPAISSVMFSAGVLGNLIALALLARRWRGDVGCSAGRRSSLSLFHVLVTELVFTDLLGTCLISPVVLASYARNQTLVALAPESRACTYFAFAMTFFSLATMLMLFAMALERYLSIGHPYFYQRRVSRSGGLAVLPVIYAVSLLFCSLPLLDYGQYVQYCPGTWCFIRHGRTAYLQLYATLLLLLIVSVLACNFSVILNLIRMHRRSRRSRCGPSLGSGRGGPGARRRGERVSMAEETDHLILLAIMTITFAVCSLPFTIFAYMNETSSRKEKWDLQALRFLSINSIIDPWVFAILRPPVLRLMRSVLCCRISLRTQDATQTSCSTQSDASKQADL
Chain of prostaglandin I2 (PGI2) receptor (IP) (P43119 whole entry): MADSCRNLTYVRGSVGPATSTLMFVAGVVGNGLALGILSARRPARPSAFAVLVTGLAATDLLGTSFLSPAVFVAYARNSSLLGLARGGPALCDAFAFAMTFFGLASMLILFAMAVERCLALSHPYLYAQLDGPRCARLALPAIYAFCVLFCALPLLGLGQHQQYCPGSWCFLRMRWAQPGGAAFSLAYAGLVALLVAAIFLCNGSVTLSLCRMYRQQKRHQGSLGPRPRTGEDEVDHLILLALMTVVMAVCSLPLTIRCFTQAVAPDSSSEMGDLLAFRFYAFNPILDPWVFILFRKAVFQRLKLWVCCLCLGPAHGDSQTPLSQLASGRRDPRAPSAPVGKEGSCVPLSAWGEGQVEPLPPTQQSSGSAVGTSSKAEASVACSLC

Consider `CCCCCC(CCC1C(O)CC2Cc3c(cccc3OCC(=O)O)CC21)OC(=O)C12CC3CC(CC(C3)C1)C2` (centres unmarked) [Prodrug LXIX], for which the “IP Relative to Tre” value in data set [1] (Table 22) is 1470x*. Also, the “EP2 Relative to Tre” value in data set [2] is given as 236x*. Moreover, the “DP1 Relative to Tre” value in [3] (Table 22) was 1897x. Further, in [4] (pH 6, 40 C.), the “Hydrolysis to treprostinil, % Area, t = 1 week” value (shortened to “Hydrolysis … % Area, t = 1 week”) came to 0.00 % Area; the “Hydrolysis to treprostinil, % Area, t = 2 weeks” value (shortened to “Hydrolysis … % Area, t = 2 weeks”) was 0.00 % Area; the “Hydrolysis to treprostinil, % Area, t = 3 weeks” value (“Hydrolysis … % Area, t = 3 weeks” below) worked out at 0.00 % Area. Further, in [4] (pH 7, 40 C.), the “Hydrolysis … % Area, t = 1 week” value worked out at 0.00 % Area; the “Hydrolysis … % Area, t = 2 weeks” value turned out to be 0.00 % Area; the “Hydrolysis … % Area, t = 3 weeks” value is 0.00 % Area. In data set [4] (pH 8, 40 C.), the “Hydrolysis … % Area, t = 1 week” value was 0.00 % Area; the “Hydrolysis … % Area, t = 2 weeks” value is 0.00 % Area; the “Hydrolysis … % Area, t = 3 weeks” value is listed as 0.00 % Area.

Turning to `CCCCCC(CCC1C(O)CC2Cc3c(cccc3OCC(=O)O)CC21)OC(=O)C(C)C` (centres unmarked) [Prodrug LXVII], the “IP Relative to Tre” value in data set [1] (Table 22) is 148x. Besides, the “EP2 Relative to Tre” value in data set [2] was 34x*. In [3] (Table 22), the “DP1 Relative to Tre” value is listed as 184x. In data set [4] (pH 6, 40 C.), the “Hydrolysis … % Area, t = 1 week” value worked out at 0.00 % Area; the “Hydrolysis … % Area, t = 2 weeks” value stood at 0.00 % Area; the “Hydrolysis … % Area, t = 3 weeks” value is on record as 0.00 % Area. Further, in [4] (pH 7, 40 C.), the “Hydrolysis … % Area, t = 1 week” value was 0.00 % Area; the “Hydrolysis … % Area, t = 2 weeks” value is 0.00 % Area; the “Hydrolysis … % Area, t = 3 weeks” value is reported as 0.00 % Area. In addition, in data set [4] (pH 8, 40 C.), the “Hydrolysis … % Area, t = 1 week” value was found to be 0.00 % Area; the “Hydrolysis … % Area, t = 2 weeks” value was found to be 0.23 % Area; the “Hydrolysis … % Area, t = 3 weeks” value is given as 0.27 % Area.

Broadly, the AUC is concentration integrated over time. Turning to `CCCCCC(CCC1C(O)CC2Cc3c(cccc3OCC(=O)O)CC21)OC(=O)CCC(=O)O` (centres unmarked) [XX], the “Trep Concentration 0 min” value in data set [5] is 0.048 µM; in [6], 0.12 µM; in data set [7], 0.019 µM; in [11] it was 0 µM. The results for the “Trep Concentration 10 min” value in [5], in data set [6] and in data set [7] were 0.087 µM, 0.24 µM and 0.044 µM, respectively. Further, the “Trep Concentration 20 min” value in data set [5] amounted to 0.092 µM; in data set [6], 0.29 µM; in data set [7], 0.087 µM. In addition, the “Trep Concentration 30 min” value in data set [5] amounted to 0.1 µM; in data set [6], 0.38 µM; in data set [7], 0.11 µM; in data set [11], 0 µM. The “Trep Concentration 60 min” value in data set [5] came to 0.16 µM; in data set [6], 0.54 µM; in data set [7], 0.2 µM; in data set [11] it was 0.019 µM. Further, the area under the curve (AUC) in [5] (human) amounted to 6.43 µmol·min/L; in data set [8] (human), 26.49 µmol·min/L; in data set [9] (rat) it was 63.89 µmol·min/L; in data set [10] (dog), 14.60 µmol·min/L; in [11] (human), 1.76 µmol·min/L; in data set [12], 21.60 µmol·min/L. In data set [13], this compound had an AUC of 6.61 µmol·min/L. Moreover, the “Trep Concentration (μM) 0 min” value in [8] was determined as 0 µM; in [9], 0.0112 µM; in data set [10] it was 0 µM. In addition, the figures for the “Trep Concentration (μM) 15 min” value in data set [8], in data set [9] and in [10] were 0.1 µM, 0.441 µM and 0.0459 µM, respectively. Moreover, the “Trep Concentration (μM) 30 min” value is 0.16 µM in [8], 0.542 µM in [9] and 0.0824 µM in data set [10]. The “Trep Concentration (μM) 60 min” value in data set [8] was determined as 0.246 µM; in data set [9], 0.594 µM; in data set [10], 0.136 µM. Also, the “Trep Concentration (μM) 120 min” value is 0.344 µM in data set [8], 0.609 µM in data set [9] and 0.198 µM in [10]. In addition, the “Trep Concentration 120 min” value in [11] is 0.03 µM.

On to “treprostinil diphosphate [Prodrug LXXIII]”, for which the AUC in [11] (human) amounted to 2.744 µmol·min/L. Besides, the “Mono AUC (treprostinil formed)” value in [11] (human) turned out to be 2.744 µmol·min/L. Also, the “Percent Remaining (Avg, n = 3) 0 min” value in data set [11] (pooled human skin homogenate, 1 μM, 37° C., 0 min) is on record as 100%. For the same compound, the “Percent Remaining (Avg, n = 3) 30 min” value in data set [11] (pooled human skin homogenate, 1 μM, 37° C., 30 min) came out at 86.2%. Moreover, the “Percent Remaining (Avg, n = 3) 60 min” value in data set [11] (pooled human skin homogenate, 1 μM, 37° C., 60 min) is on record as 71.2%. The “Percent Remaining (Avg, n = 3) 120 min” value in data set [11] (pooled human skin homogenate, 1 μM, 37° C., 120 min) was 64.0%. In addition, the “IP Relative to Tre” value in data set [1] (Table 22) and in [1] (Table 23) was 208x throughout. The “Activity at the EP2 receptor compared to treprostinil” value in data set [2] (summary of findings) is “inactive”. Also, the “DP1 Relative to Tre” value in data set [3] (Table 22) and in data set [3] (Table 23) was 217x each time. Besides, the “Activity at the DP1 receptor compared to treprostinil” value in data set [3] (summary of findings) was “several hundred-fold less active”. Besides, the “Hydrolysis … % Area, t = 1 week” value is 0.00 % Area in [4] (pH 6, 40 C.); 0.00 % Area in data set [4] (pH 7, 40 C.); 0.00 % Area in data set [4] (pH 8, 40 C.). Also, the “Hydrolysis … % Area, t = 2 weeks” value in data set [4] (pH 6, 40 C.) is 0.00 % Area; in data set [4] (pH 7, 40 C.), 0.00 % Area; in [4] (pH 8, 40 C.) it was 0.00 % Area. Also, the “Hydrolysis … % Area, t = 3 weeks” value in [4] (pH 6, 40 C.) worked out at 0.00 % Area; in data set [4] (pH 7, 40 C.), 0.00 % Area; in data set [4] (pH 8, 40 C.), 0.00 % Area.
